# Test system: HCT116 colorectal cancer cells
# Test: Cisplatin sensitization assay (96 h cell viability MTS);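 also: compound concentration needed to lower the Cisplatin-alone IC50 by a set fold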
# Format: cell-based
# Settings: 96 h MTS, compound plus Cisplatin
# How it was run: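 Cisplatin and compound are dosed at the same time, both serially diluted 2-fold from 10 μM final across a full matrix. Plates sit at 37° C in 5% CO2 for 96 h before MTS addition.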
row,Compound,Cisplatin Sensitization Assay
1,"CN(C)CCCOc1ccncc1NC(=O)c1c(N)nn2cc(Cl)cnc12 [I-O-52, 2-amino-6-chloro-N-(4-(3-(dimethylamino)propoxy)pyridin-3-yl)pyrazolo[1,5-a]pyrimidine-3-carboxamide]",+ (Compounds with a Cisplatin sensitization value >0.2 μM but <5 μM are marked with “+.”)
2,"Nc1nn2cc(Cl)cnc2c1C(=O)Nc1cnccc1OCCCO [I-O-53, 2-amino-6-chloro-N-(4-(3-hydroxypropoxy)pyridin-3-yl)pyrazolo[1,5-a]pyrimidine-3-carboxamide]",+++ (Compounds with a Cisplatin sensitization value of <0.02 μM are marked with “+++.”)
3,"COCCOc1ccncc1NC(=O)c1c(N)nn2cc(Cl)cnc12 [I-O-55, 2-amino-6-chloro-N-(4-(2-methoxyethoxy)pyridin-3-yl)pyrazolo[1,5-a]pyrimidine-3-carboxamide]",++ (Compounds with a Cisplatin sensitization value >0.02 μM but <0.2 μM are marked with “++.”)
4,"CCOc1ccncc1NC(=O)c1c(N)nn2cc(Cl)cnc12 [I-O-56, 2-amino-6-chloro-N-(4-ethoxypyridin-3-yl)pyrazolo[1,5-a]pyrimidine-3-carboxamide]",+++ (Compounds with a Cisplatin sensitization value of <0.02 μM are marked with “+++.”)
5,"COc1ccncc1NC(=O)c1c(N)nn2cc(Cl)cnc12 [I-O-57, 2-amino-6-chloro-N-(4-methoxypyridin-3-yl)pyrazolo[1,5-a]pyrimidine-3-carboxamide]",+++ (Compounds with a Cisplatin sensitization value of <0.02 μM are marked with “+++.”)
6,"Nc1nn2cc(Cl)cnc2c1C(=O)Nc1cnccc1O[C@H]1CCOC1 [I-O-58, (S)-2-amino-6-chloro-N-(4-((tetrahydrofuran-3-yl)oxy)pyridin-3-yl)pyrazolo[1,5-a]pyrimidine-3-carboxamide]",+++ (Compounds with a Cisplatin sensitization value of <0.02 μM are marked with “+++.”)
7,"Nc1nn2cc(Cl)cnc2c1C(=O)Nc1cnccc1OCC(F)(F)F [I-O-59, 2-amino-6-chloro-N-(4-(2,2,2-trifluoroethoxy)pyridin-3-yl)pyrazolo[1,5-a]pyrimidine-3-carboxamide]",+++ (Compounds with a Cisplatin sensitization value of <0.02 μM are marked with “+++.”)
8,"Nc1nn2cc(Cl)cnc2c1C(=O)Nc1cnccc1OCCN1CCOCC1 [I-O-60, 2-amino-6-chloro-N-(4-(2-morpholinoethoxy)pyridin-3-yl)pyrazolo[1,5-a]pyrimidine-3-carboxamide]",++ (Compounds with a Cisplatin sensitization value >0.02 μM but <0.2 μM are marked with “++.”)
9,"Nc1nn2cc(Cl)cnc2c1C(=O)Nc1cnccc1OC1CCOCC1 [I-O-61, 2-amino-6-chloro-N-(4-((tetrahydro-2H-pyran-4-yl)oxy)pyridin-3-yl)pyrazolo[1,5-a]pyrimidine-3-carboxamide]",+++ (Compounds with a Cisplatin sensitization value of <0.02 μM are marked with “+++.”)
10,"Nc1nn2cc(Cl)cnc2c1C(=O)Nc1cnccc1OC1CN2CCC1CC2 (stereo not drawn) [I-O-62, 2-amino-6-chloro-N-(4-(quinuclidin-3-yloxy)pyridin-3-yl)pyrazolo[1,5-a]pyrimidine-3-carboxamide]",+++ (Compounds with a Cisplatin sensitization value of <0.02 μM are marked with “+++.”)
11,"CN1CC[C@@H](Oc2ccncc2NC(=O)c2c(N)nn3cc(Cl)cnc23)C1 [I-O-63, (R)-2-amino-6-chloro-N-(4-((1-methylpyrrolidin-3-yl)oxy)pyridin-3-yl)pyrazolo[1,5-a]pyrimidine-3-carboxamide]",++ (Compounds with a Cisplatin sensitization value >0.02 μM but <0.2 μM are marked with “++.”)
12,"CN1CCC(Oc2ccncc2NC(=O)c2c(N)nn3cc(Cl)cnc23)CC1 [I-O-64, 2-amino-6-chloro-N-(4-((1-methylpiperidin-4-yl)oxy)pyridin-3-yl)pyrazolo[1,5-a]pyrimidine-3-carboxamide]",+++ (Compounds with a Cisplatin sensitization value of <0.02 μM are marked with “+++.”)
13,"Nc1nn2cc(Cl)cnc2c1C(=O)Nc1cnccc1OC1CCCOC1 (stereo not drawn) [I-O-65, 2-amino-6-chloro-N-(4-((tetrahydro-2H-pyran-3-yl)oxy)pyridin-3-yl)pyrazolo[1,5-a]pyrimidine-3-carboxamide]",+++ (Compounds with a Cisplatin sensitization value of <0.02 μM are marked with “+++.”)
14,"Nc1nn2cc(Cl)cnc2c1C(=O)Nc1cnccc1OCCO [I-O-66, 2-amino-6-chloro-N-(4-(2-hydroxyethoxy)pyridin-3-yl)pyrazolo[1,5-a]pyrimidine-3-carboxamide]",+ (Compounds with a Cisplatin sensitization value >0.2 μM but <5 μM are marked with “+.”)
15,"COCCN1CCC[C@H](Oc2ccncc2NC(=O)c2c(N)nn3cc(Cl)cnc23)C1 [I-O-67, (S)-2-amino-6-chloro-N-(4-((1-(2-methoxyethyl)piperidin-3-yl)oxy)pyridin-3-yl)pyrazolo[1,5-a]pyrimidine-3-carboxamide]",++ (Compounds with a Cisplatin sensitization value >0.02 μM but <0.2 μM are marked with “++.”)
16,"CN(C)CCOc1cc(Cl)ncc1NC(=O)c1c(N)nn2cc(Cl)cnc12 [I-O-68, 2-amino-6-chloro-N-(6-chloro-4-(2-(dimethylamino)ethoxy)pyridin-3-yl)pyrazolo[1,5-a]pyrimidine-3-carboxamide]",++ (Compounds with a Cisplatin sensitization value >0.02 μM but <0.2 μM are marked with “++.”)
17,"Nc1nn2cc(Cl)cnc2c1C(=O)Nc1cnccc1Oc1cccnc1 [I-O-70, 2-amino-6-chloro-N-(4-(pyridin-3-yloxy)pyridin-3-yl)pyrazolo[1,5-a]pyrimidine-3-carboxamide]",+++ (Compounds with a Cisplatin sensitization value of <0.02 μM are marked with “+++.”)
18,"CN(C)CCOc1cc(C(F)(F)F)ncc1NC(=O)c1c(N)nn2cc(Cl)cnc12 [I-O-71, 2-amino-6-chloro-N-(4-(2-(dimethylamino)ethoxy)-6-(trifluoromethyl)pyridin-3-yl)pyrazolo[1,5-a]pyrimidine-3-carboxamide]",+ (Compounds with a Cisplatin sensitization value >0.2 μM but <5 μM are marked with “+.”)
19,"Nc1nn2cc(Cl)cnc2c1C(=O)Nc1cnccc1OC1CC2(CNC2)C1 [I-O-72, N-(4-(2-azaspiro[3.3]heptan-6-yloxy)pyridin-3-yl)-2-amino-6-chloropyrazolo[1,5-a]pyrimidine-3-carboxamide]",+ (Compounds with a Cisplatin sensitization value >0.2 μM but <5 μM are marked with “+.”)
20,"Nc1nn2cc(Cl)cnc2c1C(=O)Nc1cnccc1OC1CNC1 [I-O-73, 2-amino-N-(4-(azetidin-3-yloxy)pyridin-3-yl)-6-chloropyrazolo[1,5-a]pyrimidine-3-carboxamide]",+ (Compounds with a Cisplatin sensitization value >0.2 μM but <5 μM are marked with “+.”)
21,"Nc1nn2cc(Cl)cnc2c1C(=O)Nc1cnccc1O[C@H]1CCCNC1 [I-O-74, (S)-2-amino-6-chloro-N-(4-(piperidin-3-yloxy)pyridin-3-yl)pyrazolo[1,5-a]pyrimidine-3-carboxamide]",++ (Compounds with a Cisplatin sensitization value >0.02 μM but <0.2 μM are marked with “++.”)
